Literature values in patent US20060235005A1, “Use of phosphodiesterase 5 (PDE5) inhibitors in the treatment of schizophrenia” (Oak Labs, Corp., priority 2005, published 2006).
Read-outs that look alike come from different tables or passages of the source.

Columns and labels:
[1] = single oral dose of 10, 20 and 40 mg
[2] = system: schizophrenia patients; conditions: 8-week trial
[3] = system: animal models
[4] = system: patients with schizophrenia; conditions: compared with haloperidol
[5] = system: men with erectile dysfunction; conditions: phase III, including patients with cardiovascular diseases, vs placebo
[6] = in vivo
[7] = system: healthy subjects; conditions: single 20-mg dose
[8] = system: rats; conditions: oral 0.3-1.0 mg kg-1, rats
[9] = system: anesthetized dogs; conditions: intravenous 1-300 μg kg-1, anesthetized dogs
[10] = system: middle cerebral artery occlusion; conditions: 2-5 mg/kg daily for seven days, vs vehicle
[11] = system: hyperammonemic rats; conditions: chronic oral treatment for 28 days
[12] = system: mice; conditions: 2, 4, & 8 mg/kg
[13] = system: women affected by arousal disorders
[14] = system: men with cardiovascular disease
[15] = system: mice; conditions: 3 mg/kg, at 48 hours
[16] = system: cortical cGMP levels; conditions: subchronic administration, rats
[17] = system: healthy young men; conditions: 100 mg
[18] = system: male schizophrenia patients
[19] = system: rats
[20] = system: rats; conditions: 3 mg/kg and 10 mg/kg p.o., at 24 hours

CCCc1nc(C)c2c(=O)[nH]c(-c3cc(S(=O)(=O)N4CCN(CC)CC4)ccc3OCC)nn12 [vardenafil]
Tmax [1]: 0.7 to 0.9 h

N[C@@H]1CONC1=O [D-cycloserine]
cognitive deficits [2]: failed to improve cognitive deficits | tolerance for memory effects ([3]; after two weeks of daily dosing): tolerance for memory effects develops | learning and memory ([3]; single dose administration): improves learning and memory

Cc1nc2n(c(=O)c1CCN1CCC(c3noc4cc(F)ccc34)CC1)CCCC2 [risperidone]
reduction in relapse rate [4]: 43%

CN1CC(=O)N2[C@H](c3ccc4c(c3)OCO4)c3[nH]c4ccccc4c3C[C@@H]2C1=O [tadalafil]
incidence of adverse events [5]: no different from that in placebo-treated patients | maximum Tmax [6]: 2 h | change in heart rate, standing systolic or diastolic blood pressure [7]: no significant change

CCCOc1ccc(S(=O)(=O)NCCC2CCCN2C)cc1-c1nc2c(CCC)nn(C)c2c(=O)[nH]1 (centres unmarked) [DA-8159]
erectogenic activity [8]: erectogenic activity | intracavernosal pressure [9]: potentiated an increase in intracavernosal pressure in a dose-related manner

CCCc1nn(C)c2c(=O)[nH]c(-c3cc(S(=O)(=O)N4CCN(C)CC4)ccc3OCC)nc12 [sildenafil]
functional recovery (foot fault test and adhesive removal test) [10]: significantly greater functional recovery | cellular proliferation in the subventricular zone and dentate gyrus ([10]; bromodeoxyuridine labeling): greater cellular proliferation | cGMP levels in brains [11]: normalized cGMP levels | performance on learning tasks [11]: restored performance on learning tasks | acquisition of maze learning [12]: dose-dependently improved acquisition | terminal half-life (in vivo): 3 to 5 h | absolute bioavailability (oral administration): 40% | time to peak plasma concentration (Tmax) (oral, fasting state): 0.5 to 2 h | sexual performance [13]: improve sexual performance | men with improved erectile function ([14]; men with ischemic heart disease): up to 70% | synergistic effect on blood pressure with antihypertensive agents ([14]; patients not taking organic nitrates, ACE inhibitors, adrenoceptor blockers, calcium channel blockers, diuretics): does not have a synergistic effect on blood pressure | retention of passive avoidance task [15]: improved retention | cortical cGMP levels [16]: increase cortical cGMP levels | actual performance (attention / recognition) [17]: did not significantly improve | event-related brain potentials (ERPs) patterns [17]: significantly affected | safety and efficacy for erectile dysfunction [18]: safe and effective | effect on behavioral effects of dopamine agonists ([19]; 10 mg/kg): antagonized behavioral effects | effect on behavioral effects of dopamine agonists ([19]; single dose 1 mg/kg): enhanced behavioral effects | retention of object recognition task [20]: significantly improved retention
